According to US20090099029A1, “Methods and substrates for conducting assays” (Invitrogen Corporation, priority 2005, published 2009):

Molecular target: T1, kinases of Table 5 (Homo sapiens, UniProt P41743)
T1 sequence (P41743 1-596): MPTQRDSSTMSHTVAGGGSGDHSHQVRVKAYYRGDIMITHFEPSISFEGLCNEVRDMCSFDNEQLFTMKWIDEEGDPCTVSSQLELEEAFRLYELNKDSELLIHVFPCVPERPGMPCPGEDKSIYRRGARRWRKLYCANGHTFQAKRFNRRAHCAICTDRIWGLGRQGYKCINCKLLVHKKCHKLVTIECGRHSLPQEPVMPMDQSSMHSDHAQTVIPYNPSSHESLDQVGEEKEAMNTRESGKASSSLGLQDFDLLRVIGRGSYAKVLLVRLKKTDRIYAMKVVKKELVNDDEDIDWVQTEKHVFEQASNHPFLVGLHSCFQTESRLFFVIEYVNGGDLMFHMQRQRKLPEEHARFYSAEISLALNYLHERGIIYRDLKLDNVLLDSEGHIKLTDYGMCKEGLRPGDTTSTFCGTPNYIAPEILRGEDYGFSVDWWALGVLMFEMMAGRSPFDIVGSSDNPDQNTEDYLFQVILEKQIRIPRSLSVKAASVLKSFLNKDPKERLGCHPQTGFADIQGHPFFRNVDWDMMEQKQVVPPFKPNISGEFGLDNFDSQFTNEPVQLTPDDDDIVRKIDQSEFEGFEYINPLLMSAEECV
Assay: Further analysis of a plurality of inhibitors and a plurality of kinases (Table 5 inhibition results)
Format: biochemical
Design: scale not given here
Details: kinase PRKCI (Part I, plate A2, Domain 0); inhibitor 90 uM
Excerpt: (§1) The wash solution is then discarded.

| Inhibition Results (Level) | SMILES |
| --- | --- |
| 2 | Cn1cc(C2=C(c3cn(CCCSC(=N)N)c4ccccc34)C(=O)NC2=O)c2ccccc21 [Ro-31-8220] |

Same assay, conditions: kinase PRKCI (Part I, plate A2, Domain 0); inhibitor 100 uM

| SMILES | Inhibition Results (Level) |
| --- | --- |
| COc1cc2ncnc(Nc3cccc(Cl)c3)c2cc1OC [AG 1478] | 0 |
| N#C/C(=C/c1ccc(O)c(O)c1)C(=O)NCc1ccccc1 [AG 490] | 2 |
| O=c1c(O)c(-c2ccc(O)c(O)c2)oc2cc(O)cc(O)c12 [Quercetin] | 0 |
| CC(=O)c1c(O)c(C)c(O)c(Cc2c(O)c3c(c(C(=O)/C=C/c4ccccc4)c2O)OC(C)(C)C=C3)c1O [Rottlerin (Mallotoxin)] | 2 |

Now from value to compound:

| Inhibition Results (Level) | SMILES |
| --- | --- |
| 2 | O=c1c(-c2ccc(O)cc2)coc2cc(O)cc(O)c12 [Genistein] |
| 0 | Cn1cc(C2=C(c3cn(CCCSC(=N)N)c4ccccc34)C(=O)NC2=O)c2ccccc21 [Ro-31-8220] |
| 1 | CC(C)(C)n1nc(-c2ccc(Cl)cc2)c2c(N)ncnc21 [PP2] |
| 2 | O=S(=O)(NCCNC/C=C/c1ccc(Br)cc1)c1cccc2cnccc12 [H-89] |

Same assay, conditions: kinase PRKCI (Part I, plate A2, Domain 0); inhibitor <3.7 mM

| Inhibition Results (Level) | SMILES |
| --- | --- |
| 0 | O=c1c(-c2ccc(O)cc2)coc2cc(O)cc(O)c12 [Genistein] |

Molecular target: T2, kinases of Table 5 (Homo sapiens, UniProt P51813)
T2 sequence (P51813 1-675): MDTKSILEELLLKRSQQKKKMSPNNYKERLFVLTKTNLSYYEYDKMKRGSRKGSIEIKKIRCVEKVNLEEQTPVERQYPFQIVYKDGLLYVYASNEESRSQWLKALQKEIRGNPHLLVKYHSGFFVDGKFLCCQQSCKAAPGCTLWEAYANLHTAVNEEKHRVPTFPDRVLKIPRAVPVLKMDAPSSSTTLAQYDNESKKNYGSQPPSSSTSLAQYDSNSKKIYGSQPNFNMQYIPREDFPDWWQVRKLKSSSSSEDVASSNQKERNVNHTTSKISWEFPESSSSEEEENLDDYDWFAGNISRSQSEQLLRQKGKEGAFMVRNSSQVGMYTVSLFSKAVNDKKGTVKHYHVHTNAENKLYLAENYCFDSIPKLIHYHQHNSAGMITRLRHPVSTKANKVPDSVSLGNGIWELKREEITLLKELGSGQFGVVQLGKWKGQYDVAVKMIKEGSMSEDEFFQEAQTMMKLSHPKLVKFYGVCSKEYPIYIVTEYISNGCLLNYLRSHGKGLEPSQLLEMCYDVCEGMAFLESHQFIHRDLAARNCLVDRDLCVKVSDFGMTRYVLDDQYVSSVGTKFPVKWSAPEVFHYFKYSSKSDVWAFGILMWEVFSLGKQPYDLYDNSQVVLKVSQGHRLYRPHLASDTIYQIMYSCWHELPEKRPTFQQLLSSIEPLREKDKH
Assay: as above
Format: biochemical
Design: scale not given here
Details: kinase BMX (Part II, plate B12, Domain 1); inhibitor 100 uM
Excerpt: as §1

| SMILES | Inhibition Results (Level) |
| --- | --- |
| O=c1c(O)c(-c2ccc(O)c(O)c2)oc2cc(O)cc(O)c12 [Quercetin] | 0 |
| CC(=O)c1c(O)c(C)c(O)c(Cc2c(O)c3c(c(C(=O)/C=C/c4ccccc4)c2O)OC(C)(C)C=C3)c1O [Rottlerin (Mallotoxin)] | 1 |
| O=S(=O)(NCCNC/C=C/c1ccc(Br)cc1)c1cccc2cnccc12 [H-89] | 1 |

Same assay, conditions: kinase BMX; inhibitor 100 uM

| SMILES | Inhibition level |
| --- | --- |
| COc1cc2ncnc(Nc3cccc(Cl)c3)c2cc1OC [AG 1478] | 1 |
| N#C/C(=C/c1ccc(O)c(O)c1)C(=O)NCc1ccccc1 [AG 490] | 0 |

Next, values leading:

| Inhibition level | SMILES |
| --- | --- |
| 0 | O=c1c(-c2ccc(O)cc2)coc2cc(O)cc(O)c12 [Genistein] |
| 2 | Cn1cc(C2=C(c3cn(CCCSC(=N)N)c4ccccc34)C(=O)NC2=O)c2ccccc21 [Ro-31-8220] |
| 2 | CC(C)(C)n1nc(-c2ccc(Cl)cc2)c2c(N)ncnc21 [PP2] |

Molecular target: kinases of Table 5 (Homo sapiens, UniProt O75914)
Assay: as above
Format: biochemical
Design: scale not given here
Details: kinase PAK3 (Part II, plate D4, Domain 1); inhibitor 100 uM
Excerpt: as §1

Sequence of kinases of Table 5 (Homo sapiens, UniProt O75914) (O75914 whole entry): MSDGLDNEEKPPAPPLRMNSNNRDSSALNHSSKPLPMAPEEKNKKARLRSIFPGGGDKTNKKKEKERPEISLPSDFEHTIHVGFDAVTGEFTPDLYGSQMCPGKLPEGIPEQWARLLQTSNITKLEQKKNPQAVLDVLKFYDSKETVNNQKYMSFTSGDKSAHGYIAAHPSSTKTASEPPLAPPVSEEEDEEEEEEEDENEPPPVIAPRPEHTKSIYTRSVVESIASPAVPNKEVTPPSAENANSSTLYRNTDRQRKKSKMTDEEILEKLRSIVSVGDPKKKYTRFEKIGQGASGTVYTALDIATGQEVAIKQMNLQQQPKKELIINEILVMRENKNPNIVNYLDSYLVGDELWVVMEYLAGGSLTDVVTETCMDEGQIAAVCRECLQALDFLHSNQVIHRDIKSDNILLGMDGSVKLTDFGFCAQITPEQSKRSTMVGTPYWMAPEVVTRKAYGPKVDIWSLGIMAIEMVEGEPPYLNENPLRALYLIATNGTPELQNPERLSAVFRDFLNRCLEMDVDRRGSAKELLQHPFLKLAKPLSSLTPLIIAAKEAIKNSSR

| SMILES | Inhibition Results (Level) |
| --- | --- |
| O=c1c(O)c(-c2ccc(O)c(O)c2)oc2cc(O)cc(O)c12 [Quercetin] | 2 |
| CC(=O)c1c(O)c(C)c(O)c(Cc2c(O)c3c(c(C(=O)/C=C/c4ccccc4)c2O)OC(C)(C)C=C3)c1O [Rottlerin (Mallotoxin)] | 0 |
| O=S(=O)(NCCNC/C=C/c1ccc(Br)cc1)c1cccc2cnccc12 [H-89] | 2 |

Same assay, conditions: kinase PAK3; concentration not given

| Inhibition level | SMILES |
| --- | --- |
| 0 | O=c1c(-c2ccc(O)cc2)coc2cc(O)cc(O)c12 [Genistein] |
| 2 | Cn1cc(C2=C(c3cn(CCCSC(=N)N)c4ccccc34)C(=O)NC2=O)c2ccccc21 [Ro-31-8220] |

Same assay, conditions: kinase PAK3; inhibitor 100 uM

| SMILES | Inhibition level |
| --- | --- |
| COc1cc2ncnc(Nc3cccc(Cl)c3)c2cc1OC [AG 1478] | 2 |
| N#C/C(=C/c1ccc(O)c(O)c1)C(=O)NCc1ccccc1 [AG 490] | 1 |

Second part, the compound after the results:

| Inhibition level | SMILES |
| --- | --- |
| 2 | O=c1c(-c2ccc(O)cc2)coc2cc(O)cc(O)c12 [Genistein] |
| 2 | Cn1cc(C2=C(c3cn(CCCSC(=N)N)c4ccccc34)C(=O)NC2=O)c2ccccc21 [Ro-31-8220] |
| 2 | CC(C)(C)n1nc(-c2ccc(Cl)cc2)c2c(N)ncnc21 [PP2] |

Molecular target: T3, kinases of Table 5 (Homo sapiens, UniProt P54753)
T3 sequence (P54753 34-998): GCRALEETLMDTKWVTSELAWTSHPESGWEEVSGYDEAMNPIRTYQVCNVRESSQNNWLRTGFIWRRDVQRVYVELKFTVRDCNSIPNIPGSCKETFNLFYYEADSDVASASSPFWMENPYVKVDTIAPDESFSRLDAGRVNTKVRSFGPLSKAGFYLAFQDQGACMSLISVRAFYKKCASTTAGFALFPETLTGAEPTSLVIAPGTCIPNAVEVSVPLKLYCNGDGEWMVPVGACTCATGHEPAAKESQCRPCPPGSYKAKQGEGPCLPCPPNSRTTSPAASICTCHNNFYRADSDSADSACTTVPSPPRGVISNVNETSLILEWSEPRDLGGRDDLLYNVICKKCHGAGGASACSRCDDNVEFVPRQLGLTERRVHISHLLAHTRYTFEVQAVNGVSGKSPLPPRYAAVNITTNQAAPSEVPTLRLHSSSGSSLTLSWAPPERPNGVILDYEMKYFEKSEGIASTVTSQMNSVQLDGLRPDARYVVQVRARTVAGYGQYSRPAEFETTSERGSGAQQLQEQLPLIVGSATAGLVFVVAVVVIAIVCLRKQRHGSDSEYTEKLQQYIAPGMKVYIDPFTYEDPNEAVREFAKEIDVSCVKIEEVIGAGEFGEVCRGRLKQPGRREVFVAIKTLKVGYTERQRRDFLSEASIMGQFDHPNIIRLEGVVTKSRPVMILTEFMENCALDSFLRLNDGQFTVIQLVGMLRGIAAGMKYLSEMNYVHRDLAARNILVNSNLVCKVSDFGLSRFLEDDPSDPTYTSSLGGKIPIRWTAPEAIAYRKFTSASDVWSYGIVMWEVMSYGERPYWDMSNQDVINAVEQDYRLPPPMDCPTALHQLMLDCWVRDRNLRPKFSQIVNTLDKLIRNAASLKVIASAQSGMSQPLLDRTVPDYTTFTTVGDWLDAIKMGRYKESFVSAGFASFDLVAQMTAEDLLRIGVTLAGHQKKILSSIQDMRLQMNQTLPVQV
Assay: as above
Format: biochemical
Design: scale not given here
Details: kinase EPHB3 (Part II, plate B5, Domain 1); inhibitor 100 uM
Excerpt: as §1

| SMILES | Inhibition Results (Level) |
| --- | --- |
| O=c1c(O)c(-c2ccc(O)c(O)c2)oc2cc(O)cc(O)c12 [Quercetin] | 2 |
| CC(=O)c1c(O)c(C)c(O)c(Cc2c(O)c3c(c(C(=O)/C=C/c4ccccc4)c2O)OC(C)(C)C=C3)c1O [Rottlerin (Mallotoxin)] | 2 |
| O=S(=O)(NCCNC/C=C/c1ccc(Br)cc1)c1cccc2cnccc12 [H-89] | 1 |

Same assay, conditions: kinase EPHB3; concentration not given

| Inhibition level | SMILES |
| --- | --- |
| 0 | O=c1c(-c2ccc(O)cc2)coc2cc(O)cc(O)c12 [Genistein] |
| 0 | Cn1cc(C2=C(c3cn(CCCSC(=N)N)c4ccccc34)C(=O)NC2=O)c2ccccc21 [Ro-31-8220] |

| SMILES | Inhibition level |
| --- | --- |
| CN[C@@H]1C[C@H]2O[C@@](C)([C@@H]1OC)n1c3ccccc3c3c4c(c5c6ccccc6n2c5c31)C(=O)NC4 [Staurosporine] | 0 |

Same assay, conditions: kinase EPHB3; inhibitor 100 uM

| SMILES | Inhibition level |
| --- | --- |
| COc1cc2ncnc(Nc3cccc(Cl)c3)c2cc1OC [AG 1478] | 2 |
| N#C/C(=C/c1ccc(O)c(O)c1)C(=O)NCc1ccccc1 [AG 490] | 2 |

Other lines, results leading:

| Inhibition level | SMILES |
| --- | --- |
| 2 | O=c1c(-c2ccc(O)cc2)coc2cc(O)cc(O)c12 [Genistein] |
| 2 | Cn1cc(C2=C(c3cn(CCCSC(=N)N)c4ccccc34)C(=O)NC2=O)c2ccccc21 [Ro-31-8220] |
| 2 | CC(C)(C)n1nc(-c2ccc(Cl)cc2)c2c(N)ncnc21 [PP2] |
